In US12091425B2 (AMGEN INC., priority 2016, dated 2024):
Values joined by “and” are separate entries in the source; they are usually repeats but may differ in a detail not shown here. Identical values can stand only once. Like-named read-outs stand apart in the source and are kept apart here.

Molecule `C[C@@H]1CC/C=C/[C@H](O)[C@]2(C)CC[C@H]2CN2C[C@@]3(CCCc4cc(Cl)ccc43)COc3ccc(cc32)C(=O)NS1(=O)=O` has a ring closure, isolated yield (from C=CCC[C@@H](C)S(=O)(=O)NC(=O)c1ccc2c(c1)N(C[C@@H]1CC[C@@]1(C)[C@@H](O)C=C)C[C@@]1(CCCc3cc(Cl)ccc31)CO2, rcm bond, 16-membered ring, Hoveyda-Grubbs II, DCM, 2.0 mM, […]) of 12.4%.

In the case of “(1S,3′R,6′R,7′S,9′Z,12′S)-6-chloro-7′-hydroxy-12′-(trifluoromethyl)-3,4-dihydro-2H,15′H-spiro[naphthalene-1,22′-[20]oxa[13]thia[1,14]diazatetracyclo[14.7.2.0^3,6.0^19,24]pentacosa [9,16,18,24]tetraen]-15′-one 13′,13′-dioxide and [...] (1S,3′R,6′R,7′S,9′E,12′S)-6-chloro-7′-hydroxy-12′-(trifluoromethyl)-3,4-dihydro-2H,15′H-spiro[naphthalene-1,22′-[20]oxa[13]thia[1,14]diazatetracyclo[14.7.2.0^3,6.0^19,24]pentacosa [9,16,18,24]tetraen]-15′-one 13′,13′-dioxide and (1S,3′R,6′R,7′S,9′E,12′R)-6-chloro-7′-hydroxy-12′-(trifluoromethyl)-3,4-dihydro-2H,15′H-spiro[naphthalene-1,22′-[20]oxa[13]thia[1,14]diazatetracyclo[14.7.2.0^3,6.0^19,24]pentacosa [9,16,18,24]tetraen]-15′-one 13′,13′-dioxide”, the ring closure, isolated yield (rcm bond, 16-membered ring, Hoveyda-Grubbs II, toluene, 2.4 mM, 101.0 °C) is reported as 63%.

For `C=CC[C@@H](O)[C@H](C)S(=O)(=O)NC(=O)c1ccc2c(c1)N(C[C@@H]1CC[C@H]1[C@@H](O)/C=C/CCC)C[C@@]1(CCCc3cc(Cl)ccc31)CO2`, the ring closure, isolated yield (the molecule shown is the open-chain precursor, rcm bond, 16-membered ring, Hoveyda-Grubbs II (50 mol%), AcOH, 8.6 mM, 60.0 °C) was 24.5%.

“(1S,3′R,6′R,7′S,8′E,12′S)-12′-((2R)-2-((tert-butyl(diphenyl)silyl)oxy)propyl)-6-chloro-7′-hydroxy-3,4-dihydro-2H,15′H-spiro[naphthalene-1,22′-[20]oxa[13]thia[1,14]diazatetracyclo[14.7.2.0^3,6.0^19,24]pentacosa[8,16,18,24]tetraen]-15′-one 13′,13′-dioxide or (1S,3′R,6′R,7′S,8′E,12′R)-12′-((2R)-2-((tert-butyl(diphenyl)silyl)oxy)propyl)-6-chloro-7′-hydroxy-3,4-dihydro-2H,15′H-spiro[naphthalene-1,22′-[20]oxa[13]thia[1,14]diazatetracyclo[14.7.2.0^3,6.0^19,24]pentacosa[8,16,18,24]tetraen]-15′-one 13′,13′-dioxide” gave a ring closure, isolated yield (rcm bond, 16-membered ring, Hoveyda-Grubbs II, DCM, 1.5 mM, 45.0 °C) of 20%.

With `O=C1NS(=O)(=O)[C@H]2CCC[C@H](C=C[C@H](O)[C@@H]3CC[C@H]3CN3C[C@@]4(CCCc5cc(Cl)ccc54)COc4ccc1cc43)C2` (single isomer, unassigned) the ring closure, isolated yield (from NS(=O)(=O)[C@H]1CCC[C@H](/C=C/[C@H](O)[C@@H]2CC[C@H]2CN2C[C@@]3(CCCc4cc(Cl)ccc43)COc3ccc(C(=O)O)cc32)C1, amide bond, 16-membered ring, EDC/DMAP, DCM, 2.0 mM, 64.0 h) was 20%.

For `O=C1NS(=O)(=O)C[C@H]2C[C@H]2/C=C/[C@H](O)[C@@H]2CC[C@H]2CN2C[C@@]3(CCCc4cc(Cl)ccc43)COc3ccc1cc32` (mixture of isomers), the ring closure, isolated yield (from C=C[C@H](O)[C@@H]1CC[C@H]1CN1C[C@@]2(CCCc3cc(Cl)ccc32)COc2ccc(C(=O)NS(=O)(=O)C[C@@H]3C[C@@H]3/C=C/C)cc21, rcm bond, 16-membered ring, Hoveyda-Grubbs II, DCE, 1.99 mM, 60.0 °C, 6.0 h) was 29%.

`O=C1NS(=O)(=O)CC2CC2C=C[C@H](O)[C@@H]2CC[C@H]2CN2C[C@@]3(CCCc4cc(Cl)ccc43)COc3ccc1cc32` (single isomer, unassigned) gave a ring closure, isolated yield (from C=C[C@H](O)[C@@H]1CC[C@H]1CN1C[C@@]2(CCCc3cc(Cl)ccc32)COc2ccc(C(=O)NS(=O)(=O)CC3CC3/C=C/C)cc21, rcm bond, 16-membered ring, Hoveyda-Grubbs II, DCE, 2.0 mM, 60.0 °C, 6.0 h) of 12%.

For `COC[C@@]1(C)CC=C[C@H](O)[C@@H]2CC[C@H]2CN2C[C@@]3(CCCc4cc(Cl)ccc43)COc3ccc(cc32)C(=O)NS1(=O)=O` (single isomer, unassigned), the ring closure, isolated yield (from COC[C@@](C)(C/C=C/[C@H](O)[C@@H]1CC[C@H]1CN1C[C@@]2(CCCc3cc(Cl)ccc32)COc2ccc(C(=O)O)cc21)S(N)(=O)=O, amide bond, 15-membered ring) was 8.8% and 7.5%.

Work on `COCCN1[C@@H](C)CC=C[C@H](O)[C@@H]2CC[C@H]2CN2C[C@@]3(CCCc4cc(Cl)ccc43)COc3ccc(cc32)C(=O)NS1(=O)=O` yielded a ring closure, isolated yield (from C=CC[C@H](C)N(CCOC)S(=O)(=O)NC(=O)c1ccc2c(c1)N(C[C@@H]1CC[C@H]1[C@@H](O)C=C)C[C@@]1(CCCc3cc(Cl)ccc31)CO2, rcm bond, 16-membered ring, Hoveyda-Grubbs II, 1,2-dichloroethane, 2.0 mM, 60.0 °C, 18.0 h) of 37%.

For `C[C@H]1CS(=O)(=O)NC(=O)c2ccc3c(c2)N(C[C@@H]2CC[C@H]2[C@@H](O)C=C[C@H]1CO[Si](c1ccccc1)(c1ccccc1)C(C)(C)C)C[C@@]1(CCCc2cc(Cl)ccc21)CO3` (single isomer, unassigned), the ring closure, isolated yield (from C[C@@H](CS(N)(=O)=O)[C@@H](/C=C/[C@H](O)[C@@H]1CC[C@H]1CN1C[C@@]2(CCCc3cc(Cl)ccc32)COc2ccc(C(=O)O)cc21)CO[Si](c1ccccc1)(c1ccccc1)C(C)(C)C, amide bond, 16-membered ring, EDC/DMAP, DCM, 2.0 mM, 16.0 h, 3 steps) was 10.8%.

`C[C@]12CC[C@H]1CN1C[C@@]3(CCCc4cc(Cl)ccc43)COc3ccc(cc31)C(=O)NS(=O)(=O)CC/C=C\C[C@@H]2O` gave a ring closure, isolated yield (from C=CCCS(=O)(=O)NC(=O)c1ccc2c(c1)N(C[C@H]1CC[C@@]1(C)[C@@H](O)CC=C)C[C@@]1(CCCc3cc(Cl)ccc31)CO2, rcm bond, 16-membered ring, Hoveyda-Grubbs II, toluene, 1.0 mM, 1.5 h) of 83%.
